Results taken from ChEMBL document CHEMBL1201862, “PubChem BioAssay data set” (2004).
The source made the active and inactive calls.

Experiments:
[1] = Luminescence Cell-Based Dose Retest to Confirm Inhibitors of Cancer Stem Cells. [Related pubchem assays (depositor defined):AID2717, AID2721]; format: functional; details: Homo sapiens
[2] = growth suppression of PTEN-null colon cells, dose response, cell-based, HCT116 PTEN knockout (AID 1047); format: functional;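 also: HCT116 colon tumor cells with PTEN knocked out; cells exposed to compound for 60 hours before readout; potency for loss of cell viability measured by luminescence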
[3] = inhibitors of PGC1a acetylation in cells, dose response, cell-based, cherry-picked samples (AID 720514); format: functional;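 also: potency may reflect raised or lowered acetylation signal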
Nonstructural protein 1 = Nonstructural protein 1 (Influenza A virus, UniProt Q194T2); format: functional, Influenza A virus (A/California/07/2009(H1N1))
Sequence of Nonstructural protein 1 (Q194T2 whole entry): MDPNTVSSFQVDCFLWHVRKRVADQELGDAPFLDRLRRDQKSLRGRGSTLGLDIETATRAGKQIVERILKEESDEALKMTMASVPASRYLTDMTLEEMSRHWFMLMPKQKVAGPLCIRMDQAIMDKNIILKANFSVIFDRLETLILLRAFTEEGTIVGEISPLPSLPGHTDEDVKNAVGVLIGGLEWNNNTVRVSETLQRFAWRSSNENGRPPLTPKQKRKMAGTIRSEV

[4] = HEp-2 cell cytotoxicity, dose response, cytotoxicity control for RSV inhibitor project, HTS (AID 2410); format: functional; details: human respiratory syncytial virus
[5] = growth suppression of beta-catenin-knockout colon cells, dose response, cell-based, HCT116, human colon tumor (AID 1045); format: functional;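 also: HCT116 colon tumor cells with beta catenin knocked out; cells exposed to compound for 60 hours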
cells [6] = details: HEK293
cells [7] = details: A549
[8] = HepG2 cell cytotoxicity, dose response, cytotoxicity control, ATP luminescence, cherry-pick, set 6 (AID 1053125); format: functional, cell-based
cells [9] = test: cells
Protein skinhead-1 = molecular target: T1, Protein skinhead-1 (Caenorhabditis elegans, UniProt P34707); format: functional
T1 sequence (P34707 whole entry): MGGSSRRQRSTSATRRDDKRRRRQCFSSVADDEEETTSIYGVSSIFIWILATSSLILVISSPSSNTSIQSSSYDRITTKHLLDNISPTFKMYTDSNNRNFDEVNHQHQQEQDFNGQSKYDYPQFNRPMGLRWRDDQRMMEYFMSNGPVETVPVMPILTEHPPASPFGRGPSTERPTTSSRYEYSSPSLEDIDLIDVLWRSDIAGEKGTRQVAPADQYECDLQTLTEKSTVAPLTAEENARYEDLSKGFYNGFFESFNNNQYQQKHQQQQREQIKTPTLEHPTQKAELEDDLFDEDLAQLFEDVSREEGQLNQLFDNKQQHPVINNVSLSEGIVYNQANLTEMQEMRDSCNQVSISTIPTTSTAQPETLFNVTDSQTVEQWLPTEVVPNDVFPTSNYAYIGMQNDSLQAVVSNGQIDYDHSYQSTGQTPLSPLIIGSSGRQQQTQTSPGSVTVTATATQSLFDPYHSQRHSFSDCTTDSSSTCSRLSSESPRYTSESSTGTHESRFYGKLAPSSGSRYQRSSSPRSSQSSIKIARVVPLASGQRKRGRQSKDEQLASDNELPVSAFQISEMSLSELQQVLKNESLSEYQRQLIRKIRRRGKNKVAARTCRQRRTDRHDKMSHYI

[10] = molecular target: T2, Oxysterols receptor LXR-beta (Homo sapiens, UniProt P55055); format: functional, cell-based;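 also: agonist activity at LXR measured by a cell-based luminescence readout across a dose range, run as a counterscreen for daf-12 agonists; potency for activation of Gal4-LXR reporter so compounds are agonists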
T2 sequence (P55055 whole entry): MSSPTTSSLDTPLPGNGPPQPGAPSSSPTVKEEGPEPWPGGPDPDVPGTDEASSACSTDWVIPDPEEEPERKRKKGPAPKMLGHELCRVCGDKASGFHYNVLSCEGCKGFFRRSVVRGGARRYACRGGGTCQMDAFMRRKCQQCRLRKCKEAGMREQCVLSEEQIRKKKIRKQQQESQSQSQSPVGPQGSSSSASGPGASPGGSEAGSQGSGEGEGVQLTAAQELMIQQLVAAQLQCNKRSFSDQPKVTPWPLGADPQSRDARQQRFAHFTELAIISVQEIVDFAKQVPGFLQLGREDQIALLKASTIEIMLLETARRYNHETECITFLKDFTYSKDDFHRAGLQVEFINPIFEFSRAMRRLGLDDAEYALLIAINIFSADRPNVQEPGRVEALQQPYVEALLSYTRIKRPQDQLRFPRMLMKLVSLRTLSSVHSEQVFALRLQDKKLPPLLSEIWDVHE

H9c2 = test: cells; format: functional, cell-based; details: Rattus norvegicus, H9c2, Myocardium;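 also: confirmatory concentration-response retest of ultra-high-throughput screening hits for modulation of myocardial damage; cell death induced by hydrogen peroxide oxidative stress; compound pretreatment for 60 min then peroxide exposure for 2 h; potency is for protecting the cells against peroxide damage rather than for killing them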
[11] = molecular target: Endoplasmic reticulum aminopeptidase 1 (Homo sapiens, UniProt Q9NZ08); test: ERAP1 aminopeptidase inhibitors, dose response, biochemical, cherry-pick, set 2, plate reader (AID 743314)
Sequence of Endoplasmic reticulum aminopeptidase 1 (Q9NZ08 whole entry): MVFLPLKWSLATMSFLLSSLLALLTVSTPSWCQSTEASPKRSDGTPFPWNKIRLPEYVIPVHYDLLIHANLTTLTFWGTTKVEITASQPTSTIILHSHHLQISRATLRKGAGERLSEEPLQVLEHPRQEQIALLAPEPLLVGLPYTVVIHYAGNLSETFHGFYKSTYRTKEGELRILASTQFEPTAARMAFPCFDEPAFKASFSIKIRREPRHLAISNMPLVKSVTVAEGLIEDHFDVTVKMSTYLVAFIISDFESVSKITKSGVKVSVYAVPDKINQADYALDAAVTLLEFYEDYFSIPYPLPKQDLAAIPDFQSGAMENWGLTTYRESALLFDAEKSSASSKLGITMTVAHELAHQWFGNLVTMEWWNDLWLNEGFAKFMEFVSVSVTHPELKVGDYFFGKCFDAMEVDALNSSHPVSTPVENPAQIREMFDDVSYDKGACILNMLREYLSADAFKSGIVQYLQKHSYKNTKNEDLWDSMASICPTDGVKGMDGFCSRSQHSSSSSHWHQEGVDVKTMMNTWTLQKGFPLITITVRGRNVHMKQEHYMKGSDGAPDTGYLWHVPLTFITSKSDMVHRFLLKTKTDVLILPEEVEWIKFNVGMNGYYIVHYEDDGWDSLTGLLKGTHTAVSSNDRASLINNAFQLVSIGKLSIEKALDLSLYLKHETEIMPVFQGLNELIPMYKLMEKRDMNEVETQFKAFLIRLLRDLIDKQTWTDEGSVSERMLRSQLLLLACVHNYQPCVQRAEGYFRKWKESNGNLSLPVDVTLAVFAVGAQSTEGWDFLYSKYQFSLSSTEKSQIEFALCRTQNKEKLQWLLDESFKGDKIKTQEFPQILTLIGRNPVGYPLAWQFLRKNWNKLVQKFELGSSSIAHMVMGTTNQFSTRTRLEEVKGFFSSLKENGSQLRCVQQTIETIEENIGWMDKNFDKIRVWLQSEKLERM

[12] = ADAM10 protease inhibitors, dose response, selectivity assay for ADAM17 exosite inhibitor project, biochemical, FRET peptide substrate, recombinant human ADAM10 (AID 743259);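 also: ADAM10 enzyme cleaving a FRET peptide substrate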
[13] = molecular target: T3, Disintegrin and metalloproteinase domain-containing protein 17 (Homo sapiens, UniProt P78536); test: exosite inhibitors of ADAM17, dose response, biochemical (AID 743260)
T3 sequence (P78536 whole entry, the tested form may be a part): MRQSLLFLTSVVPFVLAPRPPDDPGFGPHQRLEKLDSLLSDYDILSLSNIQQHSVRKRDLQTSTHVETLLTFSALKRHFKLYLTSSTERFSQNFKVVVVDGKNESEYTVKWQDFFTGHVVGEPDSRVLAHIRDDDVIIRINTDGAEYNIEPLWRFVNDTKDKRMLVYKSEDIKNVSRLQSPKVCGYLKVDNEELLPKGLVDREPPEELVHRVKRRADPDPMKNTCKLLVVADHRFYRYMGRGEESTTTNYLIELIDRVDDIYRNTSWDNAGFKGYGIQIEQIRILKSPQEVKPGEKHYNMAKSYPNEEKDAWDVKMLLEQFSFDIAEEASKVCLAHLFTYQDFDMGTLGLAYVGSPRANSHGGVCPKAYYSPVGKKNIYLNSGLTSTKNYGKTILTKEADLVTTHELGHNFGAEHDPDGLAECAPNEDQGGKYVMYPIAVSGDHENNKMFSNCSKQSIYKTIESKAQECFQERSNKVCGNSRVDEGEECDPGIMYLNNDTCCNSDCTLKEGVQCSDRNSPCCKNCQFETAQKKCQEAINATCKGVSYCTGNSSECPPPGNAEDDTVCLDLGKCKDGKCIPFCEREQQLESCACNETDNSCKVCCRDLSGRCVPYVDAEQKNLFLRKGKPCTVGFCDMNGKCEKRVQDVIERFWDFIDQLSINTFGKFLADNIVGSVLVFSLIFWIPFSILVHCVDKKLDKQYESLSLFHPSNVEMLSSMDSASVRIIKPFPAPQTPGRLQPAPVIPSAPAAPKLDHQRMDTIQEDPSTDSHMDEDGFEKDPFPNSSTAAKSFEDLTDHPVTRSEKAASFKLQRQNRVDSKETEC

[14] = Luminescence-based cell-based high throughput dose response assay to identify activators of the DAF-12 from the parasite S. stercoralis (ssDAF-12).; format: functional
[15] = molecular target: T2, Oxysterols receptor LXR-beta; test: LXR agonists, Gal4 luciferase reporter, dose response, counter-screen for ssDAF-12 agonist project, cell-based, luminescence, HEK293, S. stercoralis campaign (AID 720737); format: functional; details: read-out: IC50 (the source's name)
[16] = molecular target: 1-phosphatidylinositol 4,5-bisphosphate phosphodiesterase beta-3 (Homo sapiens, UniProt Q01970); test: Fluorescence-based biochemical high throughput dose response assay to identify inhibitors of phospholipase C isozymes (PLC-B3).
Sequence of 1-phosphatidylinositol 4,5-bisphosphate phosphodiesterase beta-3 (Q01970 whole entry): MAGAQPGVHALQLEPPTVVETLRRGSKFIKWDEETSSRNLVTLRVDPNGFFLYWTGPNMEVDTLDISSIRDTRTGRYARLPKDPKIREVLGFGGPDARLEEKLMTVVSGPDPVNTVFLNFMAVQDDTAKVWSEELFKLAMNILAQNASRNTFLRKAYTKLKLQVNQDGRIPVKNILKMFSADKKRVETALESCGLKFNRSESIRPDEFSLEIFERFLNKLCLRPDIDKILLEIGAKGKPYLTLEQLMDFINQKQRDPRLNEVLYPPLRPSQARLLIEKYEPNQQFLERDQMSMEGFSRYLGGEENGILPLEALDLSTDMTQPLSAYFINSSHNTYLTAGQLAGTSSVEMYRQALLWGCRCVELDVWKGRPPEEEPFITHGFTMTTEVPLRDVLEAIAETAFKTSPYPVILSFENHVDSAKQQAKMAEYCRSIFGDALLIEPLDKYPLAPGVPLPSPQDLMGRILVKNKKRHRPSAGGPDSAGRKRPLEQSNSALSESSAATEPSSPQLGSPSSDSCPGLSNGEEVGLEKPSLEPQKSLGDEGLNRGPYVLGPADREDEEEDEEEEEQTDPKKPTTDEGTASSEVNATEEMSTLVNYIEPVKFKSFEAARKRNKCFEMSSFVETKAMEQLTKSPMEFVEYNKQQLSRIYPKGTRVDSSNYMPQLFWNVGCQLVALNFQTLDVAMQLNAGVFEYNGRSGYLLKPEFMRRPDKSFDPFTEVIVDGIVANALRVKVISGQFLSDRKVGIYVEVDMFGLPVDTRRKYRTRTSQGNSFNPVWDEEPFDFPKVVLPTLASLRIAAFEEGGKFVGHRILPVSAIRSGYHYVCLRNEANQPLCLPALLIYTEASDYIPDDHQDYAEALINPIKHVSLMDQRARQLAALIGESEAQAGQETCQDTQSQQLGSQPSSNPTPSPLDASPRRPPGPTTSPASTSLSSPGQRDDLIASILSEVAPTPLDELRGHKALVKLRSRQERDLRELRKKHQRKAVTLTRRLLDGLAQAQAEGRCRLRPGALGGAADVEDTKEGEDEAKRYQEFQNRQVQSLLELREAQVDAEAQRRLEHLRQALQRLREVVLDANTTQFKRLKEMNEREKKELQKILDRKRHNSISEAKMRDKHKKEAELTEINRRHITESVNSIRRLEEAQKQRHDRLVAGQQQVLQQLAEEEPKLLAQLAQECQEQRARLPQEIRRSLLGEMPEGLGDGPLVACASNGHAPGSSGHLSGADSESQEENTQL

[17] = molecular target: 1-phosphatidylinositol 4,5-bisphosphate phosphodiesterase gamma-1 (Homo sapiens, UniProt P19174); test: Counterscreen for inhibitors of phospholipase C isozymes (PLC-B3): Fluorescence-based biochemical high throughput dose response assay to identify inhibitors of phospholipase C isozymes (PLC-gamma1).
[18] = ADAM10 inhibitors, peptide cleavage, dose response, biochemical, QFRET (AID 743254);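 also: ADAM10 enzyme with the DM2 quenched FRET peptide as substrate; EDANS fluorescence gain as the protease cuts the substrate; inhibitor potency against ADAM10 proteolytic activity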
[19] = molecular target: T3, Disintegrin and metalloproteinase domain-containing protein 17; test: ADAM17 protease inhibitors, dose response, counter-screen for ADAM10 exosite inhibitor project, biochemical, quenched FRET substrate (AID 743253)
[20] = molecular target: NAD-dependent protein deacylase sirtuin-5, mitochondrial (Homo sapiens, UniProt Q9NXA8); test: SIRT5 desuccinylase inhibitors, dose response, biochemical, fluorescence imaging, cherry-pick, set 5 (AID 720591);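 also: desuccinylation of succinyl peptide AMC substrate read as fluorescence after trypsin release; potency of inhibitors that lower fluorescence and may act on trypsin instead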
Sequence of NAD-dependent protein deacylase sirtuin-5, mitochondrial (Q9NXA8 whole entry): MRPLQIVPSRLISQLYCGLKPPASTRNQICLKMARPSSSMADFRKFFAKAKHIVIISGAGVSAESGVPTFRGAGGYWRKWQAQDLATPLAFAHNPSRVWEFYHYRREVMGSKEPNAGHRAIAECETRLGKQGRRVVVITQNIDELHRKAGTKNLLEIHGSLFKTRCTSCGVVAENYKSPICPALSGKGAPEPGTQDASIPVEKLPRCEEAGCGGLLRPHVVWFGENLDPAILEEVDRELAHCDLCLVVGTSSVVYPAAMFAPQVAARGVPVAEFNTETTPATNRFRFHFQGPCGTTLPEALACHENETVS

[21] = A2780 ovarian cancer cell cytotoxicity, dose response, cytotoxicity control, plate reader, dry powder samples (AID 743046); format: functional, cell-based
[22] = NIH:OVCAR-3 ovarian cancer cell cytotoxicity, dose response, PAX8 inhibitor project, plate reader, dry powder samples (AID 743044); format: functional, cell-based
[23] = cytotoxicity in OVCAR8 ovarian cancer cells, dose response, PAX8 project, cell-based, plate reader, dry powder samples (AID 743197); format: functional; details: OVCAR-8
[24] = IGROV1 ovarian cancer cell cytotoxicity, dose response, PAX8 inhibitor project, plate reader, dry powder samples (AID 743043); format: functional, cell-based; details: IGROV-1
Paired box protein Pax-8 = Paired box protein Pax-8 (Homo sapiens, UniProt Q06710); test: inhibitors of PAX8-driven TPO luciferase reporter, dose response, RMG-I cells, cherry-pick (AID 687027); format: functional, cell-based;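 also: luciferase reporter driven by Pax8 target thyroperoxidase promoter measured by SteadyGlo luminescence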
[25] = IOSE-T80 ovarian epithelial cell cytotoxicity, dose response, cytotoxicity control for PAX8 inhibitor project, plate reader, dry powder samples (AID 743045); format: functional, cell-based
Caspase-6 = molecular target: T4, Caspase-6 (Homo sapiens, UniProt P55212); test: human caspase-6 inhibitors, dose response, biochemical, VEID-R110 fluorescence, cherry-pick (AID 720632)
T4 sequence (P55212 whole entry): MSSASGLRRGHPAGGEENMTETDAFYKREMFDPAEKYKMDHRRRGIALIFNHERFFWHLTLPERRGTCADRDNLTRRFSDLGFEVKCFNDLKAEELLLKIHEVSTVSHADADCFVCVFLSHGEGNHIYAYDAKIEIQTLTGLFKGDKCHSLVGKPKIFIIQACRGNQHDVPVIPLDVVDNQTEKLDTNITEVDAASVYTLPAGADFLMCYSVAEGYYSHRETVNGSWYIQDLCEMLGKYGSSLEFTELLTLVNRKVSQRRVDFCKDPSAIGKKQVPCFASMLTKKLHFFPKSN

Caspase-9 = Caspase-9 (Homo sapiens, UniProt P55211); test: caspase-9 enzyme inhibition, dose response, selectivity assay for caspase-6 inhibitor project, biochemical, fluorescence, plate reader, cherry-picked samples (AID 743293)
Sequence of Caspase-9 (P55211 1-315 limits assumed): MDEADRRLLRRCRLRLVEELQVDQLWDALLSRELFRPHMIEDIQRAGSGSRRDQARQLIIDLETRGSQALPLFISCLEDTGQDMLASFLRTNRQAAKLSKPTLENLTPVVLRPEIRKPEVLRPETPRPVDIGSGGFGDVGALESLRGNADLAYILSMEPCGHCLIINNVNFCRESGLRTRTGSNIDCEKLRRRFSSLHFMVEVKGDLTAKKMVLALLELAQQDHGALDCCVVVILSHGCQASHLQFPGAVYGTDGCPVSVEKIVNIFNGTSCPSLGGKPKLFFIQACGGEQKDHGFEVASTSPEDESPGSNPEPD
Sequence of Caspase-9 (P55211 331-416 limits assumed): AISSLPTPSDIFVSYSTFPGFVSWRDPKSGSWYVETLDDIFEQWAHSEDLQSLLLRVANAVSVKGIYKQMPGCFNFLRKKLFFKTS

Caspase-7 = molecular target: T5, Caspase-7 (Homo sapiens, UniProt P55210); test: human caspase-7 inhibitors, dose response, selectivity assay for caspase-6 inhibitor project, biochemical, DEVD-R110 fluorescence, cherry-pick (AID 743295)
T5 sequence (P55210 whole entry): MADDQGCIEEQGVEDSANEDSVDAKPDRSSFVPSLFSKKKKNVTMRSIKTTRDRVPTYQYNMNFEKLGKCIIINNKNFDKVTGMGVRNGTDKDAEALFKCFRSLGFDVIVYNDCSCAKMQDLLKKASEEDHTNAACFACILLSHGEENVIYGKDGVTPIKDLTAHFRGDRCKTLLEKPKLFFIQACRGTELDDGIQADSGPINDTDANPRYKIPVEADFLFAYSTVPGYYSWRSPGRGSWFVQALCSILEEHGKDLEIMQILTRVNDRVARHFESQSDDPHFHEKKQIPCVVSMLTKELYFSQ

[26] = A375 melanoma cell cytotoxicity, dose response, counter-screen for MITF inhibitor project, CellTiter-Glo luminescence, dry powder, set 2 (AID 624489); format: functional, cell-based; details: A-375;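 also: actives are compounds lowering A375 viability meaning general cytotoxicity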
[27] = A375 melanoma cell viability loss, dose response, counter-screen for MITF inhibitor project, CellTiter-Glo luminescence, dry powder, set 4 (AID 624364); format: functional, cell-based; details: A-375;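 also: A375 melanoma cells are MITF independent so this is a counter screen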
[28] = MITF: Counter assay: A375 proliferation Measured in Cell-Based System Using Plate Reader - 2084-03_Inhibitor_Dose_DryPowder_Activity_Set8.; format: functional; details: A-375
[29] = MITF Orthogonal Assay: SK-MEL-5 CTG Assay Measured in Cell-Based System Using Plate Reader - 2084-02_Inhibitor_Dose_DryPowder_Activity_Set7.; format: functional
[30] = TRPM1 promoter luciferase reporter signal decrease, dose response, MITF inhibitor project, cell-based, SK-MEL-5, dry powder, set 8 (AID 624430); format: functional
Fibrinogen beta chain [31] = molecular target: T6, Fibrinogen beta chain (Homo sapiens, UniProt P02675); test: Fluorescence polarization-based biochemical high throughput dose response assay to identify inhibitors that disrupt the binding of a cyclic peptide (Tn6) to the fibrin proteolytic product D-Dimer and fragment E complex [DD(E )].
T6 sequence (P02675 whole entry, the tested form may be a part): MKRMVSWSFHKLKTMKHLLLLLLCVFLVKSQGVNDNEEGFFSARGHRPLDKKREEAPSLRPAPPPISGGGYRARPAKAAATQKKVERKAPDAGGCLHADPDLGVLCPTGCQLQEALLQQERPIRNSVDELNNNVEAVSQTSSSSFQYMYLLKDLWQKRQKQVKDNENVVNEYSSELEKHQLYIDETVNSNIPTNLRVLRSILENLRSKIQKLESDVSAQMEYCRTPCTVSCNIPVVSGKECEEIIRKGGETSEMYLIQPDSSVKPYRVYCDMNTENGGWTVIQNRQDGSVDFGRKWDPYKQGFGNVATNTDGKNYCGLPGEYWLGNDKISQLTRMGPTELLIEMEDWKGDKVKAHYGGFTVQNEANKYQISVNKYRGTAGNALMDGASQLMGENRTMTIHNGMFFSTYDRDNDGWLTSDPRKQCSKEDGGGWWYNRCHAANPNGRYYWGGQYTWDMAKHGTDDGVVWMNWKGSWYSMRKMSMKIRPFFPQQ

Fibrinogen beta chain [32] = molecular target: T6, Fibrinogen beta chain; test: Fluorescence polarization-based biochemical high throughput dose response assay to identify inhibitors that disrupt the binding of a cyclic peptide (Tn7) to the fibrin proteolytic product D-Dimer and fragment E complex [DD(E )].
[33] = BHK-21 cell cytotoxicity, cytotoxicity control for flavivirus guanylyltransferase probe project, secondary screen (AID 624078); format: functional
Kallikrein-7 = Kallikrein-7 (Homo sapiens, UniProt P49862); test: Fluorescence Intensity-based biochemical primary high throughput dose response assay to identify activators of kallikrein-7 (K7) zymogen.
Sequence of Kallikrein-7 (P49862 whole entry): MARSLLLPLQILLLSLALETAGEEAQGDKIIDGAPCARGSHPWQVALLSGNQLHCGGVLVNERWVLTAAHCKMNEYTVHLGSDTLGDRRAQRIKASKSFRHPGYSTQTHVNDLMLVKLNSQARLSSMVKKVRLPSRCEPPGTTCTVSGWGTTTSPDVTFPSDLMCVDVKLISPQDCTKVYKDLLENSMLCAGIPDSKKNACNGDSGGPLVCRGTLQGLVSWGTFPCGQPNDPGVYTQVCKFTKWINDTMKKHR

In the case of `CCCOc1ccccc1-n1sc2c(c1=S)-c1cc(OC)cc3c1N(C(=O)C3=O)C2(C)C`, the AC50 [1] is reported as 5.35 µM (active), the EC50 [2] is reported as 19.9 µM (active) and the AC50 [3] is reported as 19.4 µM (active). The IC50 (Nonstructural protein 1) was 9.35 µM (active), the CC50 [4] was 21.4 µM (active) and the EC50 [5] was 22 µM (active).

For `CCOc1ccc2nc(NCCN=C(S)NCCCN(C)C)c(C#N)cc2c1`, the AC50 (cells [6]) was > 52 µM (inactive), the AC50 (cells [7]) was > 52 µM (inactive) and the AC50 [8] was > 52 µM (inactive). For the same molecule, the AC50 (cells [9]) was > 32 µM (inactive).

With `Cc1cc2nn(-c3ccc(F)cc3)nc2cc1N` the IC50 (Protein skinhead-1) was > 100 µM (inactive) and the EC50 [10] was > 67.5 µM (inactive).

In the case of `CCCCc1cc(=O)oc2cc(O)ccc12`, the IC50 (H9c2) is reported as > 79 µM (inactive) and the AC50 [11] is reported as 7.25 µM (active).

With `NS(=O)(=O)c1ccc(NCc2cc(Cl)ccc2OCc2ccc(F)cc2)cc1` the IC50 [12] was > 23.2 µM (inactive) and the IC50 [13] was > 69.5 µM (inactive).

For `C=CCc1ccc(OCCCCOc2ccc(C(=O)O)cc2)c(OC)c1`, the IC50 [14] was > 67.5 µM (inactive) and the EC50 [15] was > 67.5 µM (inactive).

For `Cc1cc(OCC(=O)OCC(=O)NCc2ccc3c(c2)OCO3)ccc1Cl`, the IC50 [16] was > 123 µM (inactive) and the IC50 [17] was > 123 µM (inactive).

In the case of `CC(O)(c1ccc(F)c(F)c1)c1nc(-c2cc3ccccc3o2)cs1` (stereo unspecified), the IC50 [18] is reported as 10.5 µM (inactive) and the IC50 [19] is reported as > 69.5 µM (inactive).

For `O=C(O)c1ccc(S(=O)(=O)N(Cc2ccccc2)C2CCCCC2)cc1`, the AC50 [20] was > 30 µM (inactive).

In the case of `CS(=O)(=O)Nc1ccc2c(c1)[C@@H]1C[C@@H](CC(=O)NCc3ccc(Oc4ccccc4)cc3)O[C@@H](CO)[C@@H]1O2`, the AC50 [21] is reported as 6.31 µM (active), the AC50 [22] is reported as 3.38 µM (active) and the AC50 [23] is reported as 11.3 µM (active). For the same molecule, the AC50 [24] was 6.7 µM (active), the AC50 (Paired box protein Pax-8) was 1.95 µM (active) and the AC50 [25] was 8.81 µM (active).

For `O=C(C[C@@H]1C[C@H]2c3cc(NC(=O)NC4CCCCC4)ccc3O[C@H]2[C@H](CO)O1)NCc1ccccn1`, the AC50 (Caspase-6) was 7.79 µM (active), the AC50 (Caspase-9) was 53.5 µM (active) and the AC50 (Caspase-7) was 29.7 µM (active).

In the case of `O=C1C(NS(=O)(=O)c2ccc(Br)cc2)=C(N2CCOCC2)C(=O)c2ccccc21`, the AC50 [26] is reported as > 70 µM (inactive) and the AC50 [27] is reported as > 70 µM (inactive).

For `CN1CCN(C2=C(Nc3cccc(Br)c3)C(=O)c3ccccc3C2=O)CC1`, the AC50 [28] was 39.3 µM (active), the AC50 [29] was 12.3 µM (active) and the AC50 [30] was 4.79 µM (active).

With `O=C(CSc1nnc(SCc2cccc3ccccc23)s1)Nc1ccc(S(=O)(=O)Nc2nccs2)cc1` the IC50 (Fibrinogen beta chain [31]) was 15.6 µM (inactive) and the IC50 (Fibrinogen beta chain [32]) was > 83.3 µM (inactive).

For `O=S(=O)(Nc1cc(Sc2ccccc2)c(O)c2ccccc12)c1ccc(F)cc1`, the CC50 [33] was 13.4 µM (active).

With `COc1ccc(/C=N/NC(=O)c2cc3c(ccc4ccccc43)o2)cc1OC` the EC50 (Kallikrein-7) was > 23.2 µM (inactive).
